# Data published in US12168673B2 (Mitopower, Inc., priority 2022, dated 2024).
# Like-named read-outs stand apart in the source and are kept apart here.
# Columns and labels:
# [1] = Caco-2 permeability assay; details: human
# Text: The endpoint measured is the intestinal permeability expressed as apparent permeability—Papp value. All permeability values are represented as ×10^−6 cm/sec.
# [2] = Human hepatocyte clearance; type: in vitro ADME; details: human hepatocytes
# Procedure: A hepatocyte vial was taken out from the liquid nitrogen tank and was thawed in a water bath maintained at 37° C. The thawed cell suspension was transferred into a torsion tube containing 50 mL of thawing media (Xenotech). The thawing media containing hepatocytes was centrifuged at 1000 rpm for 5 min, the supernatant was discarded and the pellet was resuspended in 2 ml of Xenotech OptiIncubate Media. The cells were counted by using a haemocytometer after mixing an aliquot of cell suspension with equal volume of trypan blue. The cell suspension was diluted to a working density of 2 million cells with DMEM media without FBS/incubation media.
# The assay was performed in duplicates (n=2). 150 μL of 2 million cell working stock of hepatocyte cell suspension was added to a 24 well plate and incubated in a 37° C. incubator, with speed of 500 RPM for 10 min. 150 μL of 2 μM working stock of test compound was incubated separately. The reaction at 0, 15, 30, 60 and 90 min was stopped by precipitating 20 μL of incubation mixture with 200 μL of acetonitrile containing internal standard. […] The supernatant was separated and diluted 1:1 with water before injecting in LC-MS/MS analysis.
# [3] = Stability in solutions (pH range, simulated gastric fluid, simulated intestinal fluid); type: physicochemical
# Procedure: 1 mg/ml solutions of compound 100 were prepared in each buffer, diluted to 0.1 mg/ml in methanol at each time point and analyzed as follows: Gemini C-18, 250×4.6 mm, 5 im, Mobile Phase: Methanol Isocratic Flow Rate: 0.4 mL/min.
# Huh-7 Cells = assay: Cellular NAD+ levels in Huh-7 cells (LCMS/MS); type: cell-based; details: 125 μm, four hours of incubation
# Procedure: Huh-7 Cells, sourced from NCCS Pune, were cultured in RPMI media containing FBS & Antibiotics. Cells from different flasks (80-90% confluent) were pooled into a 15 mL conical tube and centrifuged for 5 mins at 1200 rpm for 5 mins. The supernatant solution was discarded, and the pellet was washed with 5 mL sterile PBS (without Ca^2+ and Mg^2+). The tube was then centrifuged at 1200 rpm for 5 mins and the supernatant was discarded. The cell pellet was resuspended in 7 mL of RPMI media, and a cell count was done using 10 uL of the cell solution. 1.5 million cells from the cell solution were seeded into 1.5 mL microcentrifuge tubes. […] The tubes were placed in racks and gently swirled to mix the compounds into the media containing the cells. These tubes were then incubated for 4 hours in a 37° C. incubator at 5% CO2. After 4 hours of incubation the cells were spun down at 1000 rpm for 10 mins, the supernatant was discarded carefully, and cells were snap frozen in liquid nitrogen. When the samples were run, the extraction of the cells was on ice, cells were lysed using 20 uL deionized water and then ice cold 80% methanol containing the internal standard—Rac-Tenofovir D was added. The tubes were then vortexed at 2500 rpm for 8 minutes and then centrifuged at […] for 10 minutes. 150 uL of the supernatant was carefully transferred to HPLC vials and was analyzed for NAD^+ on the Abscised 4000 Q Trap LCMS/MS system. A C18, 3.5 μm, 2.1×100 mm, Bridge Column was used in the LC. The mobile phase consisted of 10 mM ammonium acetate with 0.1% acetic acid & 0.1% hexylamine as Solvent-A and 10 mM Ammonium acetate with 0.1% acetic acid and 0.1% hexylamine in 95/5 MeOH/H2O as Solvent-B. The gradient used was 0 mins-0.0% B, 0.5 mins-100% B, 1.5 mins-100% B, 3.0 mins-100% B, 3.1 mins-0.0% B, 7.0-STOP. The column flow rate was 0.5 mL/min. The sample injection volume was […].
# [4] = SGF (simulated gastric fluid), 0 h
# [5] = SGF (simulated gastric fluid), 1 week
# [6] = SGF (simulated gastric fluid), 1 h
# [7] = SGF (simulated gastric fluid), 2 h
# [8] = SGF (simulated gastric fluid), 4 h
# [9] = SGF (simulated gastric fluid), 8 h
# [10] = SGF (simulated gastric fluid), 24 h
# [11] = SGF (simulated gastric fluid), 48 h
# [12] = SIF (simulated intestinal fluid), 0 h
# [13] = SIF (simulated intestinal fluid), 1 week
# [14] = SIF (simulated intestinal fluid), 1 h
# [15] = SIF (simulated intestinal fluid), 2 h
# [16] = SIF (simulated intestinal fluid), 4 h
# [17] = SIF (simulated intestinal fluid), 8 h
# [18] = SIF (simulated intestinal fluid), 24 h
# [19] = SIF (simulated intestinal fluid), 48 h
smiles,measurement,setting,value
"O=C(OC1O[C@H](CO)[C@@H](O)[C@H]1O)c1cccnc1 (stereo partly drawn) [Compound 100, (3R, 4S, 5R)-3,4-dihydroxy-5-(hydroxymethyl) tetrahydrofuran-2-yl nicotinate]",Papp A→B,[1],0.5 ×10⁻⁶ cm/s
same,Papp B→A,[1],0.6 ×10⁻⁶ cm/s
same,efflux ratio,[1],1.2
same,recovery,"[1]; Caco-2, % Recovery A to B",98.5%
same,recovery,"[1]; Caco-2, % Recovery B to A",89%
same,half-life at 1 μM,[2],2.38 h
same,hepatocyte CLint at 1 μM,[2],4.86 µL/min/1e6 cells
same,% remaining,[3]; [4],100.0%
same,% remaining,[3]; [5],43.4%
same,% remaining,[3]; [6],99.1%
same,% remaining,[3]; [7],89.2%
same,% remaining,[3]; [8],79.6%
same,% remaining,[3]; [9],65.4%
same,% remaining,[3]; [10],71.7%
same,% remaining,[3]; [11],55.0%
same,% remaining,[3]; [12],100.0%
same,% remaining,[3]; [13],30.7%
same,% remaining,[3]; [14],76.4%
same,% remaining,[3]; [15],64.5%
same,% remaining,[3]; [16],41.4%
same,% remaining,[3]; [17],40.5%
same,% remaining,[3]; [18],36.7%
same,% remaining,[3]; [19],38.7%
same,% remaining,"[3]; pH 1, 0 h",100.0%
same,% remaining,"[3]; pH 1, 1 week",46.5%
same,% remaining,"[3]; pH 1, 1 h",100.9%
same,% remaining,"[3]; pH 1, 2 h",104.8%
same,% remaining,"[3]; pH 1, 4 h",80.7%
same,% remaining,"[3]; pH 1, 8 h",49.0%
same,% remaining,"[3]; pH 1, 24 h",53.0%
same,% remaining,"[3]; pH 1, 48 h",45.6%
same,% remaining,"[3]; pH 2, 0 h",100.0%
same,% remaining,"[3]; pH 2, 1 week",31.9%
same,% remaining,"[3]; pH 2, 1 h",91.9%
same,% remaining,"[3]; pH 2, 2 h",93.8%
same,% remaining,"[3]; pH 2, 4 h",93.0%
same,% remaining,"[3]; pH 2, 8 h",54.8%
same,% remaining,"[3]; pH 2, 24 h",28.6%
same,% remaining,"[3]; pH 2, 48 h",36.0%
same,% remaining,"[3]; pH 4, 0 h",100.0%
same,% remaining,"[3]; pH 4, 1 week",45.4%
same,% remaining,"[3]; pH 4, 1 h",95.7%
same,% remaining,"[3]; pH 4, 2 h",99.2%
same,% remaining,"[3]; pH 4, 4 h",97.9%
same,% remaining,"[3]; pH 4, 8 h",49.0%
same,% remaining,"[3]; pH 4, 24 h",42.3%
same,% remaining,"[3]; pH 4, 48 h",42.9%
same,% remaining,"[3]; pH 6, 0 h",100.0%
same,% remaining,"[3]; pH 6, 1 week",48.1%
same,% remaining,"[3]; pH 6, 1 h",92.0%
same,% remaining,"[3]; pH 6, 2 h",86.4%
same,% remaining,"[3]; pH 6, 4 h",70.9%
same,% remaining,"[3]; pH 6, 8 h",50.4%
same,% remaining,"[3]; pH 6, 24 h",55.1%
same,% remaining,"[3]; pH 6, 48 h",47.7%
same,% remaining,"[3]; pH 7.4, 0 h",100.0%
same,% remaining,"[3]; pH 7.4, 1 week",34.2%
same,% remaining,"[3]; pH 7.4, 1 h",57.1%
same,% remaining,"[3]; pH 7.4, 2 h",41.1%
same,% remaining,"[3]; pH 7.4, 4 h",37.5%
same,% remaining,"[3]; pH 7.4, 8 h",46.3%
same,% remaining,"[3]; pH 7.4, 24 h",46.0%
same,% remaining,"[3]; pH 7.4, 48 h",36.6%
same,% remaining,"[3]; pH 9, 0 h",100.0%
same,% remaining,"[3]; pH 9, 1 week",9.2%
same,% remaining,"[3]; pH 9, 1 h",17.7%
same,% remaining,"[3]; pH 9, 2 h",7.8%
same,% remaining,"[3]; pH 9, 4 h",7.6%
same,% remaining,"[3]; pH 9, 8 h",7.5%
same,% remaining,"[3]; pH 9, 24 h",6.6%
same,% remaining,"[3]; pH 9, 48 h",8.1%
same,NAD+ level increase compared to untreated cells,Huh-7 Cells,showed an increase
"COC(=O)[C@@H](C)NP(=O)(OC[C@H]1OC(OC(=O)c2cccnc2)[C@H](O)[C@@H]1O)Oc1ccccc1 (stereo partly drawn) [Compound 101, (3R, 4S, 5R)-3,4-dihydroxy-5-(((((1-methoxy-1-oxopropan-2-yl)amino)(phenoxy)phosphoryl)oxy)methyl)tetrahydrofuran-2-yl nicotinate]",Papp A→B,[1],0.2 ×10⁻⁶ cm/s
same,Papp B→A,[1],6.1 ×10⁻⁶ cm/s
same,efflux ratio,[1],39
same,recovery,"[1]; Caco-2, % Recovery A to B",86.5%
same,recovery,"[1]; Caco-2, % Recovery B to A",87.9%
same,half-life at 1 μM,"[2]; 1 μM, 0-90 min, read-out: T½",0.214 h
same,hepatocyte CLint at 1 μM,"[2]; 1 μM, read-out: Intrinsic Clearance (CL Int)",53.9 µL/min/1e6 cells
same,% remaining,[3]; [4],90.17%
same,% remaining,[3]; [5],3.41%
same,% remaining,[3]; [6],88.8%
same,% remaining,[3]; [7],87.74%
same,% remaining,[3]; [8],83.09%
same,% remaining,[3]; [9],77.12%
same,% remaining,[3]; [10],41.98%
same,% remaining,[3]; [11],29.17%
same,% remaining,[3]; [12],91.59%
same,% remaining,[3]; [13],76.58%
same,% remaining,[3]; [14],91.12%
same,% remaining,[3]; [15],91.16%
same,% remaining,[3]; [16],90.07%
same,% remaining,[3]; [17],90.28%
same,% remaining,[3]; [18],85.29%
same,% remaining,[3]; [19],85.54%
same,% remaining,"[3]; pH 1, 0 h",88.03%
same,% remaining,"[3]; pH 1, 1 week",1.01%
same,% remaining,"[3]; pH 1, 1 h",85.91%
same,% remaining,"[3]; pH 1, 2 h",85.4%
same,% remaining,"[3]; pH 1, 4 h",81.82%
same,% remaining,"[3]; pH 1, 8 h",74.41%
same,% remaining,"[3]; pH 1, 24 h",50.26%
same,% remaining,"[3]; pH 1, 48 h",16.35%
same,% remaining,"[3]; pH 2, 0 h",88.86%
same,% remaining,"[3]; pH 2, 1 week",13.5%
same,% remaining,"[3]; pH 2, 1 h",88.82%
same,% remaining,"[3]; pH 2, 2 h",87.46%
same,% remaining,"[3]; pH 2, 4 h",85.16%
same,% remaining,"[3]; pH 2, 8 h",81.19%
same,% remaining,"[3]; pH 2, 24 h",63.31%
same,% remaining,"[3]; pH 2, 48 h",35.33%
same,% remaining,"[3]; pH 4, 0 h",82.98%
same,% remaining,"[3]; pH 4, 1 week",37.7%
same,% remaining,"[3]; pH 4, 1 h",83.96%
same,% remaining,"[3]; pH 4, 2 h",82.79%
same,% remaining,"[3]; pH 4, 4 h",81.96%
same,% remaining,"[3]; pH 4, 8 h",79.6%
same,% remaining,"[3]; pH 4, 24 h",70.75%
same,% remaining,"[3]; pH 4, 48 h",69.7%
same,% remaining,"[3]; pH 6, 0 h",88.78%
same,% remaining,"[3]; pH 6, 1 week",73.66%
same,% remaining,"[3]; pH 6, 1 h",88.01%
same,% remaining,"[3]; pH 6, 2 h",87.98%
same,% remaining,"[3]; pH 6, 4 h",87.55%
same,% remaining,"[3]; pH 6, 8 h",86.2%
same,% remaining,"[3]; pH 6, 24 h",86.09%
same,% remaining,"[3]; pH 6, 48 h",73.74%
same,% remaining,"[3]; pH 7.4, 0 h",88.58%
same,% remaining,"[3]; pH 7.4, 1 week",67.37%
same,% remaining,"[3]; pH 7.4, 1 h",88.62%
same,% remaining,"[3]; pH 7.4, 2 h",88.48%
same,% remaining,"[3]; pH 7.4, 4 h",87.24%
same,% remaining,"[3]; pH 7.4, 8 h",86.71%
same,% remaining,"[3]; pH 7.4, 24 h",86.62%
same,% remaining,"[3]; pH 7.4, 48 h",79.75%
same,% remaining,"[3]; pH 9, 0 h",90.15%
same,% remaining,"[3]; pH 9, 1 week",0%
same,% remaining,"[3]; pH 9, 1 h",80.81%
same,% remaining,"[3]; pH 9, 2 h",70.65%
same,% remaining,"[3]; pH 9, 4 h",48.75%
same,% remaining,"[3]; pH 9, 8 h",26.14%
same,% remaining,"[3]; pH 9, 24 h",4.45%
same,% remaining,"[3]; pH 9, 48 h",0%
same,NAD+ level increase compared to untreated cells,Huh-7 Cells,showed an increase
